These are literature values, as cited in patent US9550804B2, “Dosage form to increase prasterone bioavailability” (Health Science Funding, LLC, priority 2011, dated 2017).

SMILES strings stand for the structures. Values after ≈ are worked out from the molar mass of the structure shown.

Experiment in data set [1]: not given
This is another data set of the same source.

As to `C[C@]12CC[C@H](O)CC1=CC[C@@H]1[C@@H]2CC[C@]2(C)C(=O)CC[C@@H]12` [Prasterone, (3S,8R,9S,10R,13S,14S)-3-hydroxy-10,13-dimethyl-3,4,7,8,9,10,11,12,13,14,15,16-dodecahydro-1H-cyclopenta[a]phenan-thren-17(2H)-one], the solubility in water was 63.5 µg/mL (≈ 220 µM). Also, the “log P (octanol-water)” value in data set [1] was 3.23.
